Counter-ions that a name gives are not always drawn.

The data set can be described thus: XRPD analysis of the solid form after further drying (form stability). To be noted: further dried at 0.24 bar and 25° C. for 16 hours. The format is physicochemical. As for the experimental part: Unless otherwise noted, XRPD data was collected using a PANanalytical EMPYREAN vs. 8.2 20201404 diffractometer with a Cu-Kα radiation (λ=1.541874 Å) source operating at 45 kV and 40 mA in transmission theta-theta configuration. Samples were scanned from 2° to 40° 2-theta with a step size of 0.013° 2-theta and a time per step of 78.795 sec. Data collection was performed with DATA COLLECTOR vs. 7.1 and processed with Data Viewer vs. 2.1 and Profex 5.2.4 software.
The phentolamine mesylate obtained according to this Example 4 was further dried at 0.24 bar and 25° C. for 16 hours.
The phentolamine mesylate obtained according to this Example 6 was further dried at 25° C. at 0.24 bar for 16 hours.
The phentolamine mesylate obtained according to this Example 7 was further dried at 0.24 bars at 25° C. for 16 hours.
The phentolamine mesylate obtained according to this Example 11 was further dried at 25° C. and 0.24 bar for 16 hours.
The phentolamine mesylate obtained according to this Example 12 was further dried at 25° C. and 0.24 bar for 16 hours.
Consider `Cc1ccc(N(CC2=NCCN2)c2cccc(O)c2)cc1` [Example 4, phentolamine mesylate], for which the “solid form found by XRPD analysis of the further dried material” value (“solid form found by XRPD analysis” below) was “converted to a mixture of the phentolamine mesylate having XRPD peaks of Reference A and the phentolamine mesylate obtained according to Example 1”.

`Cc1ccc(N(CC2=NCCN2)c2cccc(O)c2)cc1` [Example 11, phentolamine mesylate]: the “solid form found by XRPD analysis” value was “converted to the phentolamine mesylate obtained according to Example 1”.

Take `Cc1ccc(N(CC2=NCCN2)c2cccc(O)c2)cc1` [Example 12, phentolamine mesylate]: the “solid form found by XRPD analysis” value is recorded as “converted to the phentolamine mesylate obtained according to Example 1”.

`Cc1ccc(N(CC2=NCCN2)c2cccc(O)c2)cc1` [Example 7, phentolamine mesylate]: the “solid form found by XRPD analysis” value is reported as “converted to the phentolamine mesylate obtained according to Example 1”.

With `Cc1ccc(N(CC2=NCCN2)c2cccc(O)c2)cc1` [Example 6, phentolamine mesylate], the “solid form found by XRPD analysis” value is “converted to the phentolamine mesylate obtained according to Example 1”.

These data come from patent US20250162995A1, “PHENTOLAMINE MESYLATE AND THERAPEUTIC USES THEREOF” (Opus Genetics, Inc., priority 2023, published 2025).
